According to PubChem BioAssay (NCI):
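Method: 48-hour compound exposure of cells in 96-well plates, five concentrations, linear interpolation of endpoints. GI50 is the concentration that inhibits growth by half. At the TGI there is no net growth.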

Key:
Assay in all cases: NCI tumour cell line growth inhibition, 48 h
CCRF-CEM leukemia = test system: CCRF-CEM leukemia
786-0 renal = test system: 786-0 renal
SF-539 CNS = test system: SF-539 CNS
IGROV1 ovarian = test system: IGROV1 ovarian
SNB-75 CNS = test system: SNB-75 CNS
BT-549 breast = test system: BT-549 breast
M14 melanoma = test system: M14 melanoma
LOX IMVI melanoma = test system: LOX IMVI melanoma
NCI/ADR-RES ovarian = test system: NCI/ADR-RES ovarian
MALME-3M melanoma = test system: MALME-3M melanoma

| Structure (SMILES) | GI50 (CCRF-CEM leukemia) | TGI (CCRF-CEM leukemia) | GI50 (786-0 renal) | TGI (786-0 renal) | GI50 (SF-539 CNS) | TGI (SF-539 CNS) | GI50 (IGROV1 ovarian) | TGI (IGROV1 ovarian) | GI50 (SNB-75 CNS) | TGI (SNB-75 CNS) | GI50 (BT-549 breast) | TGI (BT-549 breast) | GI50 (M14 melanoma) | TGI (M14 melanoma) | GI50 (LOX IMVI melanoma) | TGI (LOX IMVI melanoma) | GI50 (NCI/ADR-RES ovarian) | TGI (NCI/ADR-RES ovarian) | GI50 (MALME-3M melanoma) | TGI (MALME-3M melanoma) |
| --- | --- | --- | --- | --- | --- | --- | --- | --- | --- | --- | --- | --- | --- | --- | --- | --- | --- | --- | --- | --- |
| O=C(NCCNCCO)c1ccc(Nc2nc3ccccc3c3occc23)cc1 | 3.05 µM | 14.3 µM | 13.7 µM | 27.5 µM | 12.6 µM | 29.4 µM | 6.71 µM | 25.1 µM | 9.26 µM | 27.2 µM | 11.5 µM | 34.2 µM | 14.9 µM | 30.4 µM | 8.45 µM | 22.2 µM | 24.9 µM | 61.8 µM |  |  |
| O=C1NC(=NCCc2ccc(Br)cc2)S/C1=C\c1ccc2ncccc2c1 | 21.1 µM | > 25 µM | > 25 µM | > 25 µM | 14.5 µM | > 25 µM | > 25 µM | > 25 µM | > 25 µM | > 25 µM | > 21.6 µM | > 25 µM | > 25 µM | > 25 µM | > 25 µM | > 25 µM | > 20.6 µM | > 25 µM | > 21.7 µM | > 25 µM |
| C=CCSC(C)=O |  | > 100 µM |  | > 100 µM |  | > 100 µM |  | > 100 µM |  | > 100 µM |  | > 100 µM |  | > 100 µM |  | > 100 µM |  | > 100 µM |  | > 100 µM |
| COc1cc(C(=O)O[C@H](C(=O)NCCCCNC(=O)[C@@H](OC(=O)c2cc(OC)cc3c(C)cccc23)[C@]2(C)CO2)[C@]2(C)CO2)c2cccc(C)c2c1 | < 0.01 µM | > 100 µM |  | 1.25 µM | < 0.0385 µM | 0.266 µM |  | 0.944 µM | 0.114 µM | 0.373 µM | 0.305 µM | 5.53 µM | 0.0769 µM | 0.591 µM | < 0.01 µM | < 0.01 µM | 0.199 µM | 0.904 µM |  |  |
| Cc1c(C(N)=O)sc2nc(C)n(/N=c3\scc(-c4ccccc4)n3Cc3ccccc3)c(=O)c12 | 34.2 µM | > 100 µM | 3.82 µM | > 100 µM | 4.02 µM | > 100 µM | 1.43 µM | 6.31 µM | 2.8 µM | > 100 µM | 2.41 µM | 8.89 µM | 3.88 µM | 84.5 µM | 3.54 µM | > 100 µM | 2.9 µM | 29.2 µM | 2.18 µM | > 100 µM |
| COc1ccc2c(c1)C(=O)c1c-2n(CCCN(C)C)c(=O)c2cc([N+](=O)[O-])ccc12 | < 0.01 µM | < 0.01 µM | < 0.01 µM | < 0.01 µM | < 0.01 µM | < 0.01 µM | < 0.01 µM | 13.6 µM | < 0.01 µM | 2.74 µM | 0.0159 µM | 0.621 µM | < 0.01 µM | 0.0428 µM | < 0.01 µM | 0.108 µM | < 0.01 µM | 0.188 µM | 0.0207 µM | 0.892 µM |
| CCc1c(C)c2cc(-n3c(-c4ccc(OC)cc4)csc3=N)c(O)c(C)c2oc1=O | 1.54 µM | > 100 µM | 1.7 µM | 4.72 µM | 2.14 µM | 7.25 µM | 1.08 µM | 5.25 µM | 1.67 µM | > 100 µM | 1 µM | 5.02 µM | 1.41 µM | 6.59 µM |  |  | 1.62 µM | 10.6 µM | 1.73 µM | 6.26 µM |
